# Data from US10966940B2, “Methods for the treatment of tinnitus induced by cochlear excitotoxicity” (INSTITUT NATIONAL DE LA SANTE ET DE LA RECHERCHE MEDICALE …, priority 2004, dated 2021).
# Experiments:
# Long-Evans rats = experiment: Behavioral (active avoidance) model of tinnitus induced by cochlear excitotoxicity provoked by acute acoustic trauma; assay type: in vivo, rat
# Procedure: We developed and tested an animal model of tinnitus induced by cochlear excitotoxicity, which was provoked by acoustic trauma. […] These considerations mean for example that more animals are required to obtain a sufficient number of tinnitus cases for study and to permit observation of tinnitus over time. As it is unclear whether a case of tinnitus induced by cochlear excitotoxicity is to last or not, it is advisable to conduct studies in its early stages.
# The experiments were performed in two stages. First, the hearing loss following acute acoustic trauma as well as the incidence of tinnitus were evaluated with no therapeutic compound administered.
# During experiments, animals were caged individually at a constant temperature with a day/night cycle of 12/12 hours. All behavioral tests were performed in the dark phase, the usual period of animal activity, for every animal individually at about the same time each day. Outside the experiments, the animals received water and nutrition ad libidum. A total of 60 animals were used: 30 for the first stage (of which 25 were tested by behavioral techniques and 5 by electrophysiology), and 30 for the second stage with 10 for each pharmaceutical compound tested.
# Acoustic trauma was induced by a continuous pure tone of 6 kHz generated by a waveform synthesizer (Hewlett-Packard 8904A). The animals were anesthetized and exposed to 130 dB sound pressure level (SPL) for 20 minutes, which was routed through a programmable attenuator and presented to the ears in free field via a JBL 075 earphone positioned 10 cm in front of the animal's head. Sound level was measured using a calibrated Bruel and Kjaer microphone (4314) and a Bruel and Kjaer calibrating amplifier (2606).
# Behavioral conditioning and testing Animals were conditioned to achieve active avoidance (Guitton et al., J. of Neuroscience 23 (9): 3944-3952 (2003)). Behavioral testing consisted of the performance of a task whenever a sound was produced in a conditioning box with an electrical floor and a climbing pole. […] The unconditional stimulus consisted of an electric shock to the feet of the animals (3.7 mA) during maximally 30 seconds. Interstimulus intervals were 1 second. The electric shocks were stopped by the investigator once the animal correctly climbed onto the pole. Intervals between trials were at least one minute long.
# The score was defined as the animal's performance, measured by the number of cases when it climbed correctly onto the pole in response to the sound. As soon as an animal had reached a score of at least 80% in three consecutive sessions, it was considered successfully conditioned and employed in the experiments.
# Experiments were conducted daily with measurements of both score and false positive responses during one session of 10 minutes with 10 trials in total. False positive responses were climbings onto the pole between trials without any acoustic stimulation, i.e. during periods of silence. They can be interpreted as the perception of tinnitus, as the animals are performing the task of climbing onto the pole as if they were hearing the stimulus (Guitton et al., J. of Neuroscience 23 (9): 3944-3952 (2003)). Sound stimuli were randomized, and electrical footshocks were only delivered if the animals didn't climb onto the pole in response to sound.
# Animals were anaesthetized with a single-dose i.p. injection of 0.3 ml/kg of pentobarbital at 6% (Sanofi) and operated under aseptic conditions right after the first behavioral testing (day 0). The two bullae were opened through a posterior auricular surgical procedure (dorsal approach). After exposure of the two cochleas, gelfoam (Gelita tampon, B. Braun Medical AG) impregnated with 2.5 μl artificial perilymph containing the pharmaceutical compounds was placed on the each of the round windows of the two cochleas. The concentration of all three pharmaceutical compounds used was 50 μM.
# guinea pigs [1] = experiment: ESA noise trauma model: ensemble spontaneous activity of the cochlear nerve; assay type: in vivo, guinea pig; settings: for regular ESA peak centered at 900 Hz to 1 kHz: treated ear; for ESA spectral peak centered at 200 to 250 Hz (tinnitus): 50 microM in 0.7% hyaluronic acid gel, round window
# Procedure: We developed therefore an animal model with guinea pigs that were exposed to intensive noise, producing acute acoustic trauma, and whose ESA was recorded to control for the absence or presence of tinnitus (“ESA noise trauma model”). The possibility to record tinnitus by electrophysiological tests provides an excellent tool for evaluating the therapeutic benefits of pharmaceutical compounds in suppressing tinnitus. The development of the ESA noise trauma model required extensive experimentation with different noise trauma protocols as well as the development and testing of specific measurement tools for extended observation periods in vivo.
# The experiment was performed in two stages. First, guinea pigs were exposed to intense noise stimulation in order to provoke acute acoustic trauma (day 0). Auditory thresholds and ESA were determined and then followed further by repeated electrophysiological measurements. If persisting tinnitus could still be detected after at least 5 days, an NMDA receptor antagonists (ketamine or 7-CK) was applied in a hyaluronic acid formulation onto the round window membrane of the cochlea. […] After treatment with the NMDA receptor antagonists, electrophysiological measurements of hearing thresholds and ESA continued for at least 10 days. The primary endpoints of the study were to test whether the pharmacological treatment could suppress tinnitus even after its onset, and whether such treatment effect was persisting or not. As a control, contralateral ears were exposed to the same noise exposure and followed by electrophysiology.
# Experiments were performed on adult pigmented guinea pigs (250 to 300 grams at study begin). During experiments, animals were caged individually. Outside the experiments, the animals received water and nutrition ad libidum. […] In two contralateral left ears, tinnitus was observed, so that they could be used as a control group.
# Acoustic trauma was induced by a continuous pure tone of 6 kHz generated by a waveform synthesizer (Hewlett-Packard 8904A). […] Sound level was measured using a calibrated Bruel and Kjaer microphone (4314) and a Bruel and Kjaer calibrating amplifier (2606).
# A teflon-coated platinum electrode implanted onto the round window membranes of both cochleas (with reference electrodes placed in a neck muscle) measured the ESA and the compound action potential of the auditory nerve (CAP). […]
# The ESA was recorded from the platinum wire placed in the round window niche. […]
# The ESA was measured just before acute acoustic trauma and 20 minutes following noise exposure on day 0, and then repeatedly for at least 10 days as described above. […] Subsequently, ESA was measured again on the first day after treatment (T+1) as well as 10 days after treatment (T+10). […]
# guinea pigs [2] = experiment: CAP audiogram (hearing threshold) in ESA noise trauma model; assay type: in vivo, guinea pig; settings: local administration onto round window membrane
# Procedure: A teflon-coated platinum electrode implanted onto the round window membranes of both cochleas (with reference electrodes placed in a neck muscle) measured the ESA and the compound action potential of the auditory nerve (CAP). The surgery was performed using a posterior auricular surgical procedure (dorsal approach) prior to noise exposure. The reference electrode and the round window electrode were soldered to a plug fixed on the skull using dental cement (Unifast Trad, GC Corporation).
# The CAP was measured concomitantly with ESA measurements using the same electrode. Tone bursts (with a duration of 9 ms and a rise/fall cycle of 1 ms, 10 per second) generated by an arbitrary function generator (LeCroy Corp., model 9100R) were applied to the animal's ear in free filed via a JBL 075 earphone. CAP audiograms were obtained by varying burst levels from 0 to 100 dB SPL in steps of 5 dB at the frequencies 2, 4, 6, 8, 10, 12, 16, 20, and 26 kHz. Auditory nerve responses were amplified (Tektronic TM 503; gain 2000), filtered (3.5 kHz low pass) and averaged on a PC (Dimension Pentium, Dell). CAP amplitudes were measured peak-to-peak between the first negative depression N1 and the subsequent positive wave P1. The CAP threshold was defined as the sound intensity (in dB SPL) needed to elicit a measurable response (greater than 5 μV). […]
# [3] = tested on: PCP binding site of the NMDA receptor; settings: higher affinity than (R)-ketamine; cited from earlier work
# NMDA receptors = settings: local administration; cited from earlier work
# [4] = tested on: salicylate-induced tinnitus; settings: cited from earlier work; for number of false positives after delivery to the cochleas via the round window membrane: salicylate-treated animals; for false positive responses (jumps in absence of sound) induced by the substance: tinnitus induction
# tinnitus = settings: systemic administration; cited from earlier work
# [5] = in vivo; cited from earlier work
# [6] = tested on: NR1 subunit of the cochlear NMDA receptor; settings: 350 mg/kg i.p. twice over 24 hours; sample after 24 hours
# Procedure: The salicylate dose used is known to induce tinnitus (Guitton et al., J. of Neuroscience 23 (9): 3944-3952 (2003)). Another group of 3 animals served as control and was injected i.p. with a NaCl 0.9% solution of the same volume as salicylate treated animals. Samples were obtained after 24 hours in the salicylate and control groups and 24 hours respectively 5 days post incident for the acoustic trauma group.
# Tissues were harvested in cold PBS and homogenized in sample buffer, and the lysates were centrifuged to remove detergent-insoluble material and separated on a 10% SDS-PAGE in Tris/Tricine. After gel electrophoresis, proteins were transferred electrophoretically to nitrocellulose membranes (PVDF transfer membrane Hybond-P, Amersham Pharmacia Biotech, USA). Blots were first incubated with a primary anti-antibody against the NMDA NR1 receptor subunit (1/1000 dilution; rabbit polyclonal antibody, Chemicon international, USA), and with a primary antibody anti-actin (1/50000 dilution, mouse monoclonal anti-β-actin, Sigma, USA) overnight at 4° C. To verify that the molecular weight of the NR1 subunit is identical in both brain and cochlea, immunoblots from the brain of control animals were performed. […] Image scanning of Western blots was then performed for semi-quantification of expression levels of NR1 and actin proteins using Biorad Fluor-S software (Quantity one).
# [7] = tested on: sensory outer hair cells (OHC) and inner hair cell (IHC) synaptic complex; settings: 350 mg/kg i.p. twice a day for 2 days
# Procedure: After decapitation of the rats under deep anaesthesia (pentobarbital 50 mg/kg), the cochleas were removed from the temporal bone and perfused with a fixative solution of 2.5% glutaraldehyde in 0.1 M phosphate-buffered saline (PBS), pH 7.3. They were then processed either for scanning (SEM) or transmission electron (TEM) microscopy. For SEM, the otic capsule was dissected out and the stria vascularis, tectorial, and Reissner's membranes were removed. After rinsing in PBS (pH 7.3) the samples were dehydrated in a graded series of ethanol (30-100%), critical point-dried in CO2, coated with gold palladium, and examined using a Hitachi S4000 microscope. For TEM, the cochleas were postfixed in a 1% aqueous solution of osmium tetroxide for 2 hours, rinsed in phosphate buffer, dehydrated in a graded series of ethanol (30-100%), and embedded in Epon resin. Transverse ultrathin sections of the organ of Corti were taken from the apical half of the cochlea. The sections, mounted on formvar-coated or mesh grids, were stained with uranyl acetate, and lead citrate and examined using a Hitachi 7100 microscope.
compound,measurement,setting,value
"CN[C@@]1(c2ccccc2Cl)CCCCC1=O (stereo in doubt) [S-(+)-Ketamine, 2-(2-chlorophenyl)-2-(methylamino)-cyclohexanone]",number of false positives,"Long-Evans rats; group 1 (no increase), days 0 and 1",0.22±0.22 false positives
same,number of false positives,"Long-Evans rats; group 2 (reversible increase), day 0",0.2±0.2 false positives
same,number of false positives,"Long-Evans rats; group 2 (reversible increase), day 1",5±0.48 false positives
same,"recovery of behavioral score after trauma, in words","Long-Evans rats; local administration to round window membrane, 50 μM",improvement was slower than in untreated animals
same,"effect on tinnitus (false positives), in words","Long-Evans rats; local administration to round window membrane, 50 μM, before acoustic trauma",only cases of transient tinnitus could be observed
same,number of animals with no increase in false positives (group 1),Long-Evans rats; of 10 animals per compound,5
same,"number of animals with only reversible increase in false positives (group 2, transient tinnitus)",Long-Evans rats; of 10 animals per compound,5
same,average score at stabilization,"Long-Evans rats; rat, in vivo",89%±2.3
same,regular ESA peak centered at 900 Hz to 1 kHz,guinea pigs [1]; 10 days after treatment (T+10),fully recovered
same,regular ESA peak centered at 900 Hz to 1 kHz,guinea pigs [1]; day T1 after treatment,"still appeared, yet diminished"
same,ESA spectral peak centered at 200 to 250 Hz (tinnitus),"guinea pigs [1]; day T1 after treatment, given after onset of persisting tinnitus",completely disappeared
same,ESA spectral peak centered at 200 to 250 Hz (tinnitus),guinea pigs [1]; day T10 after treatment,remained absent
same,"permanent threshold shift (PTS, hearing loss) after treatment",guinea pigs [2],not changed
same,affinity relative to (R)-ketamine,[3],3-4 fold
"N[C@H](CCCP(=O)(O)O)C(=O)O [D-AP5, D-2-amino-5-phosphonopentanoic acid]",functional recovery and regrowth of auditory dendrites,NMDA receptors,delayed the functional recovery and the regrowth of auditory dendrites
"C[C@]12N[C@H](Cc3ccccc31)c1ccccc12 [MK-801, dizocilpine]",number of false positives after delivery to the cochleas via the round window membrane,[4],decreased significantly
C1C2CC3CC1CC(C2)C3 [adamantane],tinnitus during treatment,tinnitus,reduction in tinnitus during treatment
CCN(CC)CCn1c(=O)c(Cc2ccc(OC)cc2)nc2ccccc21 [caroverine],"intracochlear concentration, local versus systemic administration",[5],higher intracochlear concentrations
CC1CCCCC1(c1cccs1)N1CCCCC1 (stereo not drawn) [gacyclidine],number of false positives after delivery to the cochleas via the round window membrane,[4],decreased significantly
Cc1cccc(Nc2ccccc2C(=O)O)c1C [mefenamate],false positive responses (jumps in absence of sound) induced by the substance,[4],increased the number of false positive responses
"O=C([O-])c1ccccc1O.[Na+] [salicylate, sodium salicylate]","NR1 NMDA receptor subunit expression, higher than control animals",[6],4%
same,stereocilia of OHC and IHC,[7]; SEM,intact
same,ultrastructure of the IHC synaptic complex,[7]; TEM,No ultrastructural abnormalities
same,false positive responses (jumps in absence of sound) induced by the substance,[4],significant increase
